Where a SMILES comes first, the peptide text is derived from it. [ ]: non-standard residue; d: D form. The star is where a group is joined. dPhe(4-NHCONH2) = NC(=O)Nc1ccc(C[C@@H](N)C(=O)O)cc1; Dihydroorotyl(S) = O=C1C[C@@H](C(=O)*)NC(=O)N1; dPhe(4-Cl) = N[C@H](Cc1ccc(Cl)cc1)C(=O)O; Phe(4-NH2) = Nc1ccc(C[C@H](N)C(=O)O)cc1; d2Nal = N[C@H](Cc1ccc2ccccc2c1)C(=O)O; Lys(iPr) = CC(C)NCCCC[C@H](N)C(=O)O; NMeY = CN[C@@H](Cc1ccc(O)cc1)C(=O)O; d3Pal = N[C@H](Cc1cccnc1)C(=O)O
How the values were obtained:
[1] = human, in vivo; cited from earlier work
[2] = in vivo
[3] = Target plasma level calculated for pigs; format: in vivo, pig
Excerpt: These very initial studies in this pig model are understood to represent proof of concept that formulations of the invention may be able to provide sustained release for up to three months, especially after IM administration, in a human model.

testosterone = experiment: Plasma level needed to prevent testosterone breakthrough (rat); format: in vivo; conditions: between doses
Experimental: In the rat, the mean plasma concentration level of degarelix which is necessary to ensure there is no testosterone breakthrough between doses is 6 ng/mL, and this value was therefore selected as the target level for the present work. In other words, if the mean plasma concentration of degarelix is 6 ng/mL or greater after administration of a given formula, this is a good indicator that the formulation would be effective (for the duration of the study).

In the case of CC(=O)N[C@H](Cc1ccc2ccccc2c1)C(=O)N[C@H](Cc1ccc(Cl)cc1)C(=O)N[C@H](Cc1cccnc1)C(=O)N[C@@H](CO)C(=O)N(C)[C@@H](Cc1ccc(O)cc1)C(=O)N[C@H](CC(N)=O)C(=O)N[C@@H](CC(C)C)C(=O)N[C@@H](CCCCNC(C)C)C(=O)N1CCC[C@H]1C(=O)N[C@H](C)C(N)=O [Abarelix] (Ac-[d2Nal][dPhe(4-Cl)][d3Pal]S[NMeY][dN]L[Lys(iPr)]P[dA]-NH2), the allergic reaction risk [1] is given as “risk of serious allergic reactions, including anaphylaxis with hypotension and syncope”.
For CC(=O)N[C@H](Cc1ccc2ccccc2c1)C(=O)N[C@H](Cc1ccc(Cl)cc1)C(=O)N[C@H](Cc1cccnc1)C(=O)N[C@@H](CO)C(=O)N[C@@H](Cc1ccc(NC(=O)[C@@H]2CC(=O)NC(=O)N2)cc1)C(=O)N[C@H](Cc1ccc(NC(N)=O)cc1)C(=O)N[C@@H](CC(C)C)C(=O)N[C@@H](CCCCNC(C)C)C(=O)N1CCC[C@H]1C(=O)N[C@H](C)C(N)=O [degarelix, D-Alaninamide, N-acetyl-3-(2-naphthalenyl)-D-alanyl-4-chloro-D-phenylalanyl-3-(3-pyridinyl)-D-alanyl-L-seryl-4-[[[(4S)-hexahydro-2,6-dioxo-4-pyrimidinyl]carbonyl]amino]-L-phenylalanyl-4-[(aminocarbonyl)amino]-D-phenylalanyl-L leucyl-N6-(1-methylethyl)-L-lysyl-L-prolyl] (Ac-[d2Nal][dPhe(4-Cl)][d3Pal]S[Phe(4-NH2)](Dihydroorotyl(S))[dPhe(4-NHCONH2)]L[Lys(iPr)]P[dA]-NH2), the efficacy and tolerability [2] was “effective and well-tolerated without evidence of systemic allergic reactions”, the “target level of mean degarelix concentration” value [3] was 8 ng/mL and the “mean plasma concentration necessary to ensure no testosterone breakthrough” value (testosterone) was 6 ng/mL.

Reference: patent US10441626B2, “Microparticles comprising GNRH made by PGSS” (Ferring B.V., priority 2013, dated 2019)
